Positions of bridges follow the written chain, without caps; N, C: chain ends. Non-standard residues stand in square brackets, D forms with d. Residues, ends and D or L forms follow the SMILES beside them.
Tests used:
[1] = Stability in mouse serum monitored by RP-HPLC; format: in vitro ADME; conditions: 37° C., 24 h
Procedure: RGD-Lys-(Arg^11)CCMSH was radiolabeled with ^99mTc via a glucoheptonate transchelation reaction using methods described previously (7). Briefly, 100 μl of 2 mg/ml SnCl2 in 0.2 M glucoheptonate aqueous solution and 200 μl of fresh ^99mTcO4^− solution (1-4 mCi) were added into a reaction vial and incubated at room temperature (25° C.) for […] to form ^99mTc-glucoheptonate. Then, 10 μl of 1 mg/ml RGD-Lys-(Arg^11)CCMSH aqueous solution was added into the reaction vial and the pH of the reaction mixture was adjusted to 8.5 with 0.1 M NaOH. The reaction mixture was incubated at 75° C. for 40 min. […] The stability of ^99mTc-RGD-Lys-(Arg^11)CCMSH was determined by incubation in mouse serum at 37° C. according to the published procedure (27) for various time periods, and monitored for degradation by RP-HPLC.
RGD-Arg-(Arg^11)CCMSH was radiolabeled with ^99mTc via a glucoheptonate transchelation reaction using methods described previously (17). […] The stability of ^99m Tc-RGD-Arg-(Arg^11)CCMSH was determined by incubation in mouse serum at 37° C. according to the published procedure (17) for various time periods, and monitored for degradation by RP-HPLC.

[2] = tested on: B16/F1 murine melanoma cells; experiment: Specificity of cellular uptake (peptide blockade); format: cell-based; conditions: rather than αvβ3 integrin-mediated
Procedure: The specificity of cell binding was determined by incubating ^99mTc-RGD-Lys-(Arg^11)CCMSH with or without non-radioactive peptides. After being washed once with binding media, B16/F1 cells in 24-well cell culture plates were incubated with approximately 200,000 cpm of HPLC purified ^99mTc-RGD-Lys-(Arg^11)CCMSH at 25° C. for 120 min (n=4) in the presence of 0.1 μM of RGD-Lys-(Arg^11)CCMSH, NDP-MSH, (Arg^11)CCMSH or RGD in 0.5 ml of binding media, respectively. The reaction media were aspirated after the incubation. The cells were rinsed twice with 0.5 ml of ice-cold pH 7.4, 0.2% BSA/0.01 M PBS and lysed in 0.5 ml of 1 N NaOH for 5 min. The activities associated with cells were measured in a gamma counter. Statistical analysis was performed using the Student's t-test for unpaired data.
The specificity of cellular uptake was determined by incubating ^99mTc-RGD-Arg-(Arg^11)CCMSH with or without non-radioactive peptides. After being washed once with binding medium, B16/F1 cells in 24-well cell culture plates were incubated with approximately 200,000 cpm of HPLC purified ^99mTc-RGD-Arg-(Arg^11)CCMSH at 25° C. for 120 min (n=3) in the presence of 0.1 μM of RGD-Arg-(Arg^11)CCMSH, (Arg^11)CCMSH, RGD or no peptide blockade in 0.5 mL of binding medium, respectively. The reaction medium was aspirated after the incubation. The cells were rinsed twice with 0.5 mL of ice-cold pH 7.4, 0.2% BSA/0.01 M PBS and lysed in 0.5 mL of 1 N NaOH for 5 min. The activities associated with cells were measured in a gamma counter.

[3] = Effect of L-lysine co-injection on renal and tumor uptakes; format: in vivo, C57 mice; conditions: 15 mg of L-lysine, 2 h post-injection; for tissue uptake at 2 h: C57, mouse, kidneys, with L-lysine, 15 mg co-injected, total radioactivity
Procedure: The effects of L-lysine co-injection on the renal uptakes of ^99mTc-RGD-Arg-(Arg^11)CCMSH and ^99mTc-RGD-Lys-(Arg^11)CCMSH was examined in B16/F1 melanoma-bearing C57 as well. Two groups of 5 mice were injected with an aqueous mixture of 0.037 MBq of ^99mTc-RGD-Arg-(Arg^11)CCMSH and 15 mg of L-lysine or an aqueous mixture of 0.037 MBq of ^99mTc-RGD-Lys-(Arg^11)CCMSH and 15 mg of L-lysine, respectively. The mice were sacrificed at 2 h post-injection, and tumors and kidneys were harvested, weighed and counted.

Row | Stability in mouse serum [1] | Effect of L-lysine co-injection on the tumor uptake [3] | Reduction of renal uptake by L-lysine co-injection [3] [%] | tissue uptake at 2 h [3] [%ID/g] | SMILES | Mechanism of cellular uptake [2]
1 | stable | without affecting | 27.7 | 31.1 ± 6.42 | CC(C)[C@H](NC(=O)[C@@H]1CCCN1C(=O)[C@H](CCCNC(=N)N)NC(=O)[C@H](CS)NC(=O)[C@H](Cc1c[nH]c2ccccc12)NC(=O)[C@H](CCCNC(=N)N)NC(=O)[C@@H](Cc1ccccc1)NC(=O)[C@H](Cc1c[nH]cn1)NC(=O)[C@H](CCC(=O)O)NC(=O)[C@H](CS)NC(=O)[C@H](CS)NC(=O)[C@H](CCCNC(=N)N)NC(=O)[C@@H]1CC(=O)N[C@@H](CCCNC(=N)N)C(=O)NCC(=O)N[C@@H](CC(=O)O)C(=O)N[C@H](Cc2ccc(O)cc2)C(=O)N1)C(N)=O [^99mTc-RGD-Arg-(Arg^11)CCMSH, metal not drawn] (RGD[dY]DRCCEH[dF]RWCRPV-NH2; lactam N-5) | MC1 receptor-mediated
2 | stable | without affecting | 52.1 | 32.2 ± 5.98 | CC(C)[C@H](NC(=O)[C@@H]1CCCN1C(=O)[C@H](CCCNC(=N)N)NC(=O)[C@H](CS)NC(=O)[C@H](Cc1c[nH]c2ccccc12)NC(=O)[C@H](CCCNC(=N)N)NC(=O)[C@@H](Cc1ccccc1)NC(=O)[C@H](Cc1c[nH]cn1)NC(=O)[C@H](CCC(=O)O)NC(=O)[C@H](CS)NC(=O)[C@H](CS)NC(=O)[C@H](CCCCN)NC(=O)[C@@H]1CC(=O)N[C@@H](CCCNC(=N)N)C(=O)NCC(=O)N[C@@H](CC(=O)O)C(=O)N[C@H](Cc2ccc(O)cc2)C(=O)N1)C(N)=O [^99mTc-RGD-Lys-(Arg^11)CCMSH, metal not drawn] (RGD[dY]DKCCEH[dF]RWCRPV-NH2; lactam N-5) | MC1 receptor-mediated

From patent publication US9005575B2, “Arg-Gly-Asp-conjugated alpha-melanocyte stimulating hormone hybrid peptide for use in diagnosing and treating melanoma, including metastatic melanoma and methods related to same” (STC.UNM, priority 2009, dated 2015)
